According to patent EP2608671B1, “COMPOUNDS FOR TREATMENT OF CANCER” (Gtx, Inc., priority 2010, dated 2012):
Where two headings read alike, the source gives them in different places.

Legend:
DU 145 = experiment: cells; conditions: Homo sapiens
PC-3 = experiment: cells; conditions: Homo sapiens
From the text: (§1) The only compounds which belong to the invention are the ones falling under the scope of formula (XI).
Cells were stained with SRB solution.
Cells. […] Cells between the third and fifth passages were used for experiments.
Cell growth inhibition studies. […] Cells were stained with sulphorhodamine B (SRB) solution.

A375 = experiment: SRB cell growth inhibition (cytotoxicity) assay; assay type: cell-based, human
PPC-1 = experiment: cells; conditions: Homo sapiens
WM-164 = experiment: SRB cell growth inhibition (cytotoxicity) assay; assay type: cell-based, human; conditions: Homo sapiens
B16-F1 = experiment: SRB cell growth inhibition (cytotoxicity) assay; assay type: cell-based, mouse
From the text: as §1

LNCaP = experiment: cells; conditions: Homo sapiens
[1] = DU-145, 96 h, read-out: IC50 ± SEM (nM), DU 145
[2] = PC-3, 96 h, read-out: IC50 ± SEM (nM), PC-3
[3] = Homo sapiens, A-375, 96 h; read-out: IC50 ± SEM (nM), A375
[4] = PPC-1, 96 h, read-out: IC50 ± SEM (nM), PPC-1
[5] = WM164, SRB assay, 96 h, Table 2, read-out: IC50 ± SEM (nM), WM-164
[6] = Mus musculus, B16-F1; read-out: IC50 ± SEM (nM), B16-F1
[7] = 96 h, read-out: IC50 ± SEM (nM), LNCaP
[8] = Homo sapiens, A-375, 96 h, read-out: IC50 ± SEM (nM), A375
[9] = WM164, 96 h, read-out: IC50 ± SEM (nM), WM-164
[10] = Mus musculus, B16-F1, read-out: IC50 ± SEM (nM), B16-F1

| SMILES | IC50 (DU 145; [1]) [nM] | IC50 (PC-3; [2]) [nM] | IC50 (A375; [3]) [nM] | IC50 (PPC-1; [4]) [nM] | IC50 (WM-164; [5]) [nM] | IC50 (B16-F1; [6]) [nM] | IC50 (LNCaP; [7]) [nM] | IC50 (A375; [8]) [nM] | IC50 (B16-F1; [10]) [nM] | also measured |
| --- | --- | --- | --- | --- | --- | --- | --- | --- | --- | --- |
| COc1cc(C(=O)c2cc(-c3ccccc3)n[nH]2)cc(OC)c1OC [1k, (3-Phenyl-1H-pyrazol-5-yl)(3,4,5-trimethoxyphenyl)methanone] |  |  |  |  |  |  |  |  |  | IC50 (DU 145; DU-145, read-out: IC50 ±SEM (nM), DU 145): 140 nM; IC50 (PC-3; PC-3, read-out: IC50 ±SEM (nM), PC-3): 101 nM; IC50 (A375; Homo sapiens, A-375; Table 6; read-out: IC50 ±SEM (nM), A375): 100 nM; IC50 (PPC-1; PPC-1, read-out: IC50 ±SEM (nM), PPC-1): 84 nM; IC50 (WM-164; WM164, Table 6, read-out: IC50 ±SEM (nM), WM164): 220 nM; IC50 (B16-F1; Mus musculus, B16-F1; Table 6; read-out: IC50 ±SEM (nM), B16-F1): 245 nM; IC50 (LNCaP; read-out: IC50 ±SEM (nM), LNCaP): 101 nM |
| COc1cc(C(=C(C)C)c2csc(-c3ccccc3)n2)cc(OC)c1OC [2a, 4-(2-Methyl-1-(3,4,5-trimethoxyphenyl)prop-1-enyl)-2-phenylthiazole] | 2650 | 2470 | 1900 ± 800 | 2040 | 3700 ± 1200 | 3800 ± 1300 | 1390 |  |  |  |
| COc1cc(/C(=C\C#N)c2csc(-c3ccccc3)n2)cc(OC)c1OC [2c-cis, (E)-3-(2-phenylthiazol-4-yl)-3-(3,4,5-trimethoxyphenyl)acrylonitrile] | ~10000 | ~10000 |  | ~10000 |  |  | 1990 | 1200 ± 400 | 1200 ± 300 | IC50 (WM-164; [9]): 1000 ± 200 nM |
| COc1cc(/C(=C/C#N)c2csc(-c3ccccc3)n2)cc(OC)c1OC [2c-trans, (Z)-3-(2-phenylthiazol-4-yl)-3-(3,4,5-trimethoxyphenyl)acrylonitrile] | 2280 | 890 |  | 900 |  |  | 580 | 4600 ± 1500 | 5400 ± 2100 | IC50 (WM-164; [9]): 4900 ± 1300 nM |
| CO/N=C(/c1cc(OC)c(OC)c(OC)c1)c1csc(-c2ccccc2)n1 [2f-cis, (Z)-(2-Phenylthiazol-4-yl)(3,4,5-trimethoxyphenyl)methanone O-methyl oxime] | > 10000 | > 10000 | 2900 ± 1200 | > 10000 | 3400 ± 1800 | 3800 ± 1600 | > 10000 |  |  |  |
| CO/N=C(\c1cc(OC)c(OC)c(OC)c1)c1csc(-c2ccccc2)n1 [2f-trans, (E)-(2-Phenylthiazol-4-yl)(3,4,5-trimethoxyphenyl)methanone O-methyl oxime] | > 10000 | > 10000 | > 10000 | > 10000 | > 10000 | > 10000 | > 10000 |  |  |  |
| COc1cc(-c2csc(-c3ccccc3)n2)cc(OC)c1OC [2i, 2-Phenyl-4-(3,4,5-trimethoxyphenyl)thiazole] | > 10000 | > 10000 | > 10000 | > 10000 | > 10000 | > 10000 | > 10000 |  |  |  |
| O=C(c1cc(O)c(O)c(O)c1)c1c[nH]c(-c2ccc(O)c(O)c2)n1 [13ha, (2-(3,4-dihydroxyphenyl)-1H-imidazol-4-yl)(3,4,5-trihydroxyphenyl)methanone] |  |  |  |  |  |  |  |  |  | IC50 (A375; Homo sapiens, A-375; A375 melanoma cells, 48 h, SRB; read-out: IC50 ± SEM (nM) A375): > 10000 nM; IC50 (WM-164; WM164 melanoma cells, 48 h, SRB, read-out: IC50 ± SEM (nM) WM164): > 10000 nM; IC50 (B16-F1; Mus musculus; B16-F1 melanoma cells, 48 h, SRB; read-out: IC50 ± SEM (nM) B16-F1): > 10000 nM |
| COc1cc(C(=O)[C@@H]2CSC(c3ccc(O[Si](C)(C)C(C)(C)C)cc3)=N2)cc(OC)c1OC [58a, (R)-(2-(4-(tert-Butyldimethylsilyloxy)phenyl)-4,5-dihydrothiazol-4-yl)(3,4,5-trimethoxyphenyl)methanone] | 434 ± 30 | 183 ± 24 |  | 246 ± 8 |  |  | 549 | 700 ± 300 | 500 ± 200 |  |
| COc1cc(C(=O)c2csc(-c3cc4ccccc4[nH]3)n2)cc(OC)c1OC [62a, (2-(1H-indol-2-yl)thiazol-4-yl)(3,4,5-trimethoxyphenyl)methanone] | 32 | 24 |  | 28 |  |  | 28 | 19 ± 9 | 43 ± 21 |  |
| COc1cc(C(=O)c2csc(-c3ccc(CNC(=O)OC(C)(C)C)cc3)n2)cc(OC)c1OC [68a, tert-Butyl 4-(4-(3,4,5-trimethoxybenzoyl)thiazol-2-yl)benzylcarbamate] | 4400 | 3100 | 7900 ± 500 | 2700 |  | 2900 ± 400 | 2600 |  |  |  |
| CC(C)C[C@H](NC(=O)[C@H](Cc1ccccc1)NC(=O)c1cnccn1)B(O)O [Bortezomib, reference compound] |  |  |  |  |  |  |  |  |  | IC50 (A375; Homo sapiens, A-375, read-out: IC50 ± SEM (nM) (n=3), A375; Table 14A): 8 ± 1 nM; IC50 (WM-164; WM164, read-out: IC50 ± SEM (nM) (n=3), WM-164, Table 14A): 8 ± 1 nM; IC50 (B16-F1; Mus musculus, B16-F1, read-out: IC50 ± SEM (nM) (n=3), B16-F1; Table 14A): 24 ± 2 nM |
